Measurements: PubChem BioAssay (NCI)
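Following 48 hours of exposure in 96-well plates, responses at five concentrations were used to interpolate endpoints linearly. Abbreviation: GI50, concentration required for 50% inhibition of growth. Definition used: TGI = concentration required for complete inhibition of growth.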

Legend:
Assay in all cases: inhibition of tumour cell growth, NCI panel, 48 h
[1] = test system: 786-0 renal
[2] = test system: DLD-1 colon
[3] = test system: KM20L2 colon
[4] = test system: M14 melanoma
[5] = test system: M19-MEL melanoma
[6] = test system: SK-OV-3 ovarian
[7] = test system: TK-10 renal
[8] = test system: DU-145 prostate
[9] = test system: MDA-MB-231 breast
[10] = test system: MDA-MB-435
[11] = test system: T-47D breast
[12] = test system: DMS 114 small cell lung

SMILES | TGI [1] [µM] | TGI [2] [µM] | TGI [3] [µM] | TGI [4] [µM] | TGI [5] [µM] | TGI [6] [µM] | TGI [7] [µM] | GI50 [8] [µM] | TGI [8] [µM] | GI50 [4] [µM] | GI50 [9] [µM] | TGI [9] [µM] | GI50 [10] [µM] | TGI [10] [µM] | GI50 [11] [µM] | TGI [11] [µM] | GI50 [7] [µM] | TGI [12] [µM]
CN1C2C=C(c3ccccc3)CC1CC2 (configuration not stated) | > 100 | > 100 | > 100 | > 100 | > 100 | > 100 | > 100 |  |  |  |  |  |  |  |  |  |  | 
CCOc1ccc(/C=C/[N+](=O)[O-])cc1 |  |  |  | 4.24 |  |  | 24.7 | 10.4 | 22.2 | 2.06 | 7.91 | 20.9 | 3.18 | 13.7 | 17.6 | 42.8 | 12 | 
O=C1Nc2ccccc2Nc2nc3cccccc-3c21 | > 100 | > 100 | > 100 | > 100 | > 100 | > 100 | > 100 |  |  |  |  |  |  |  |  |  |  | > 100
CC1(C)CCc2cc3c(-c4ccccc4)cc(=O)oc3cc2O1 |  | > 100 | > 100 | > 100 | > 100 | > 100 | > 100 |  |  |  |  |  |  |  |  |  |  | > 100
[C-]#[O+].[Cl][Sn]([Cl])[Cl].[Cl][Sn]([Cl])[Cl].[Pt].c1ccncc1 |  | > 100 | > 100 |  |  | > 100 |  |  |  |  |  |  |  |  |  |  |  | 
c1ccc2c(c1)nc1n2CSC1 |  | > 100 | > 100 | > 100 | > 100 | > 100 | > 100 |  |  |  |  |  |  |  |  |  |  | > 100
O=C(Nc1ccc(Cl)cc1)/C(Cc1cccc[n+]1[O-])=N\Nc1ccc([N+](=O)[O-])cc1[N+](=O)[O-] | > 100 | > 100 | > 100 | > 100 | > 100 | > 100 | > 100 |  |  |  |  |  |  |  |  |  |  | > 100
CC(C)=CC(=O)OC1C2C(C)C(=O)OC2C(O)C(C)C2C=CC(=O)C21C (configuration not stated) |  | 3.9 | 7.76 |  | 8.42 | 15.3 |  |  |  |  |  |  |  |  |  |  |  | 7.19
O=C(Nc1nc2ccc([N+](=O)[O-])cc2[n+]([O-])n1)C(F)(F)F | > 100 |  |  | > 100 |  |  | > 100 |  | > 100 |  |  | > 100 |  | 32 |  | > 100 |  | 
O=C1CN2C(Cl)(Cl)C2(c2ccccc2)c2cc(Cl)ccc2N1CC(F)(F)F (configuration not stated) |  | 42.9 | > 100 | 77.5 | > 100 | > 100 | > 100 |  |  |  |  |  |  |  |  |  |  | 66.6
CCOP(=O)(OCC)C(Cc1ccc(OC)c(OC)c1)N=C(c1ccccc1)c1ccccc1 (configuration not stated) |  |  |  | > 100 |  |  | > 100 |  | > 100 |  |  | > 100 |  | > 100 |  | 56.8 |  | 
Cc1nc2ccccc2c(=O)n1CC(=O)O |  | > 100 | > 100 |  | > 100 | > 100 |  |  |  |  |  |  |  |  |  |  |  | > 100
Cc1cccc2c(N)c3cccc(C(=O)NCCN(C)C)c3nc12 |  |  |  | 0.422 |  | 14.5 | > 30 |  | 0.639 |  |  | 0.275 |  | 0.321 |  | 0.513 |  | 
C[C@]12C=CC(=O)C=C1CC[C@@H]1[C@@H]2C(=O)C[C@@]2(C)[C@H]1CC[C@]2(O)C(=O)CO | > 100 |  |  | > 100 |  | > 100 | > 100 |  | > 100 |  |  | > 100 |  | > 100 |  | > 100 |  | 
